Measured values reported in the NIST ThermoML archive (doi:10.1016/j.jct.2015.11.012).

Assay: xn = mol fraction of the nth substance listed
Details: 100 kPa, Liquid; for viscosity: Capillary tube (Ostwald / Ubbelohde) method; for speed of sound: Frequency=2 MHz, Linear variable-path acoustic interferometer; for mass density: Vibrating tube method

OCCCl [1-chloro-2-hydroxyethane] + Nc1cccc(Cl)c1
Details | mass density [kg/m3] | speed of sound [m/s] | viscosity [mPa·s]
303.15 K, x2 = 0 | 1192.12 | 1342.8 | 2.578
303.15 K, x2 = 0.0844 | 1194.38 | 1365.5 | 2.728
303.15 K, x2 = 0.1759 | 1196.5 | 1388.6 | 2.888
303.15 K, x2 = 0.2675 | 1198.32 | 1410 | 3.046
303.15 K, x2 = 0.3622 | 1199.9 | 1430.2 | 3.207
303.15 K, x2 = 0.4808 | 1201.48 | 1452.7 | 3.408
303.15 K, x2 = 0.5814 | 1202.58 | 1469.7 | 3.576
303.15 K, x2 = 0.6862 | 1203.51 | 1484.7 | 3.749
303.15 K, x2 = 0.7938 | 1204.28 | 1498 | 3.925
303.15 K, x2 = 0.8902 | 1204.84 | 1508.2 | 4.081
308.15 K, x2 = 0 | 1186.63 | 1328.5 | 2.259
308.15 K, x2 = 0.0844 | 1189.08 | 1351.3 | 2.402
308.15 K, x2 = 0.1759 | 1191.33 | 1374.1 | 2.553
308.15 K, x2 = 0.2675 | 1193.26 | 1395.1 | 2.703
308.15 K, x2 = 0.3622 | 1194.92 | 1415 | 2.855
308.15 K, x2 = 0.4808 | 1196.62 | 1437.1 | 3.045
308.15 K, x2 = 0.5814 | 1197.79 | 1454 | 3.203
308.15 K, x2 = 0.6862 | 1198.8 | 1469.2 | 3.367
308.15 K, x2 = 0.7938 | 1199.65 | 1482.5 | 3.532
308.15 K, x2 = 0.8902 | 1200.24 | 1492.7 | 3.679
313.15 K, x2 = 0 | 1178.05 | 1315.5 | 1.852
313.15 K, x2 = 0.0844 | 1181.05 | 1337.6 | 1.995
313.15 K, x2 = 0.1759 | 1183.78 | 1359.6 | 2.147
313.15 K, x2 = 0.2675 | 1186.13 | 1379.6 | 2.296
313.15 K, x2 = 0.3622 | 1188.2 | 1398.4 | 2.448
313.15 K, x2 = 0.4808 | 1190.36 | 1419.6 | 2.636
313.15 K, x2 = 0.5814 | 1191.88 | 1435.7 | 2.795
313.15 K, x2 = 0.6862 | 1193.24 | 1450.5 | 2.958
313.15 K, x2 = 0.7938 | 1194.4 | 1463.3 | 3.123
313.15 K, x2 = 0.8902 | 1195.27 | 1472.8 | 3.269
318.15 K, x2 = 0 | 1170.87 | 1301.2 | 1.564
318.15 K, x2 = 0.0844 | 1173.91 | 1323.6 | 1.698
318.15 K, x2 = 0.1759 | 1176.26 | 1345.1 | 1.84
318.15 K, x2 = 0.2675 | 1178.79 | 1365.6 | 1.978
318.15 K, x2 = 0.3622 | 1181.24 | 1384.1 | 2.118
318.15 K, x2 = 0.4808 | 1184.01 | 1404.8 | 2.292
318.15 K, x2 = 0.5814 | 1185.85 | 1420.8 | 2.438
318.15 K, x2 = 0.6862 | 1187.52 | 1435.5 | 2.589
318.15 K, x2 = 0.7938 | 1189.32 | 1448.6 | 2.741
318.15 K, x2 = 0.8902 | 1190.2 | 1458 | 2.874

Nc1cccc(Cl)c1 [3-chlorobenzenamine] + NCCO
Details | mass density [kg/m3] | speed of sound [m/s] | viscosity [mPa·s]
303.15 K, x1 = 0.0857 | 1037.07 | 1689 | 13.56
303.15 K, x1 = 0.1749 | 1063.03 | 1674.4 | 12.66
303.15 K, x1 = 0.2679 | 1086.86 | 1658.9 | 11.72
303.15 K, x1 = 0.3619 | 1108.19 | 1642.4 | 10.77
303.15 K, x1 = 0.4597 | 1127.88 | 1624.3 | 9.773
303.15 K, x1 = 0.5607 | 1145.96 | 1604.9 | 8.747
303.15 K, x1 = 0.6649 | 1162.61 | 1584.1 | 7.685
303.15 K, x1 = 0.7726 | 1177.97 | 1562.3 | 6.586
303.15 K, x1 = 0.8835 | 1192.12 | 1540.1 | 5.451
303.15 K, x1 = 1 | 1205.32 | 1517.5 | 4.255
308.15 K, x1 = 0.0857 | 1032.99 | 1673.4 | 11.04
308.15 K, x1 = 0.1749 | 1058.89 | 1659.2 | 10.35
308.15 K, x1 = 0.2679 | 1082.69 | 1643.1 | 9.621
308.15 K, x1 = 0.3619 | 1103.96 | 1626 | 8.885
308.15 K, x1 = 0.4597 | 1123.59 | 1607.5 | 8.117
308.15 K, x1 = 0.5607 | 1141.65 | 1588.1 | 7.322
308.15 K, x1 = 0.6649 | 1158.22 | 1568.1 | 6.5
308.15 K, x1 = 0.7726 | 1173.53 | 1547.2 | 5.649
308.15 K, x1 = 0.8835 | 1187.62 | 1525.2 | 4.77
308.15 K, x1 = 1 | 1200.75 | 1501.2 | 3.842
313.15 K, x1 = 0.0857 | 1029.02 | 1658.8 | 9.049
313.15 K, x1 = 0.1749 | 1054.84 | 1643.8 | 8.509
313.15 K, x1 = 0.2679 | 1078.52 | 1626.5 | 7.944
313.15 K, x1 = 0.3619 | 1099.7 | 1608.2 | 7.37
313.15 K, x1 = 0.4597 | 1119.25 | 1588.8 | 6.771
313.15 K, x1 = 0.5607 | 1137.2 | 1568.9 | 6.151
313.15 K, x1 = 0.6649 | 1153.72 | 1548.6 | 5.51
313.15 K, x1 = 0.7726 | 1168.97 | 1527.7 | 4.846
313.15 K, x1 = 0.8835 | 1182.98 | 1505.5 | 4.157
313.15 K, x1 = 1 | 1196.02 | 1480.3 | 3.43
318.15 K, x1 = 0.0857 | 1024.4 | 1642 | 7.182
318.15 K, x1 = 0.1749 | 1050.2 | 1627.5 | 6.785
318.15 K, x1 = 0.2679 | 1073.86 | 1610.2 | 6.368
318.15 K, x1 = 0.3619 | 1095.02 | 1591.7 | 5.944
318.15 K, x1 = 0.4597 | 1114.53 | 1572.2 | 5.501
318.15 K, x1 = 0.5607 | 1132.47 | 1552.5 | 5.043
318.15 K, x1 = 0.6649 | 1149 | 1532.6 | 4.568
318.15 K, x1 = 0.7726 | 1164.23 | 1512.3 | 4.075
318.15 K, x1 = 0.8835 | 1178.23 | 1490.5 | 3.565
318.15 K, x1 = 1 | 1191.25 | 1464.8 | 3.022

Nc1cccc(Cl)c1 [3-chlorobenzenamine] + OCCc1ccccc1
Details | mass density [kg/m3] | speed of sound [m/s] | viscosity [mPa·s]
303.15 K, x1 = 0.0855 | 1027.23 | 1509.6 | 8.643
303.15 K, x1 = 0.1746 | 1043.06 | 1511 | 8.223
303.15 K, x1 = 0.2665 | 1059.74 | 1512.3 | 7.787
303.15 K, x1 = 0.3613 | 1077.27 | 1513.6 | 7.335
303.15 K, x1 = 0.4491 | 1093.81 | 1514.6 | 6.916
303.15 K, x1 = 0.5201 | 1107.41 | 1515.4 | 6.576
303.15 K, x1 = 0.6594 | 1134.71 | 1516.5 | 5.907
303.15 K, x1 = 0.7692 | 1156.83 | 1517 | 5.377
303.15 K, x1 = 0.8787 | 1179.49 | 1517.3 | 4.846
303.15 K, x1 = 1 | 1205.32 | 1517.5 | 4.255
308.15 K, x1 = 0.0855 | 1023.5 | 1492.2 | 6.915
308.15 K, x1 = 0.1746 | 1039.28 | 1493.6 | 6.623
308.15 K, x1 = 0.2665 | 1055.88 | 1495 | 6.319
308.15 K, x1 = 0.3613 | 1073.34 | 1496.3 | 6.005
308.15 K, x1 = 0.4491 | 1089.81 | 1497.4 | 5.712
308.15 K, x1 = 0.5201 | 1103.34 | 1498.3 | 5.473
308.15 K, x1 = 0.6594 | 1130.52 | 1499.6 | 5.005
308.15 K, x1 = 0.7692 | 1152.56 | 1500.4 | 4.632
308.15 K, x1 = 0.8787 | 1175.08 | 1500.9 | 4.259
308.15 K, x1 = 1 | 1200.75 | 1501.2 | 3.842
313.15 K, x1 = 0.0855 | 1019.67 | 1472 | 5.867
313.15 K, x1 = 0.1746 | 1035.39 | 1473.4 | 5.638
313.15 K, x1 = 0.2665 | 1051.92 | 1474.6 | 5.398
313.15 K, x1 = 0.3613 | 1069.28 | 1475.8 | 5.149
313.15 K, x1 = 0.4491 | 1085.67 | 1476.9 | 4.918
313.15 K, x1 = 0.5201 | 1099.15 | 1477.7 | 4.729
313.15 K, x1 = 0.6594 | 1126.19 | 1478.9 | 4.357
313.15 K, x1 = 0.7692 | 1148.11 | 1479.7 | 4.061
313.15 K, x1 = 0.8787 | 1170.53 | 1480.3 | 3.763
313.15 K, x1 = 1 | 1196.02 | 1480.3 | 3.43
318.15 K, x1 = 0.0855 | 1015.75 | 1457.9 | 4.827
318.15 K, x1 = 0.1746 | 1031.43 | 1459.1 | 4.659
318.15 K, x1 = 0.2665 | 1047.87 | 1460.2 | 4.483
318.15 K, x1 = 0.3613 | 1065.15 | 1461.2 | 4.3
318.15 K, x1 = 0.4491 | 1081.46 | 1462.1 | 4.129
318.15 K, x1 = 0.5201 | 1094.86 | 1462.8 | 3.989
318.15 K, x1 = 0.6594 | 1121.8 | 1463.9 | 3.714
318.15 K, x1 = 0.7692 | 1143.63 | 1464.6 | 3.494
318.15 K, x1 = 0.8787 | 1165.92 | 1464.8 | 3.272
318.15 K, x1 = 1 | 1191.25 | 1464.8 | 3.022
